Data reported in ChEMBL document CHEMBL1201862, “PubChem BioAssay data set” (2004).
The source made the active and inactive calls. Cut-off read from the data, not from the text of the source: actives have a measured IC50 and inactives only a lower limit.

Target: Envelope glycoprotein gp160 (Human immunodeficiency virus 1, UniProt Q6QLK5)
Assay: cell-free HIV fusion peptide-binding blockers – biochemical, uHTS, fluorescence dequenching, […] (AID 1986)

Envelope glycoprotein gp160, sequence (Q6QLK5 whole entry, the tested form may be a part): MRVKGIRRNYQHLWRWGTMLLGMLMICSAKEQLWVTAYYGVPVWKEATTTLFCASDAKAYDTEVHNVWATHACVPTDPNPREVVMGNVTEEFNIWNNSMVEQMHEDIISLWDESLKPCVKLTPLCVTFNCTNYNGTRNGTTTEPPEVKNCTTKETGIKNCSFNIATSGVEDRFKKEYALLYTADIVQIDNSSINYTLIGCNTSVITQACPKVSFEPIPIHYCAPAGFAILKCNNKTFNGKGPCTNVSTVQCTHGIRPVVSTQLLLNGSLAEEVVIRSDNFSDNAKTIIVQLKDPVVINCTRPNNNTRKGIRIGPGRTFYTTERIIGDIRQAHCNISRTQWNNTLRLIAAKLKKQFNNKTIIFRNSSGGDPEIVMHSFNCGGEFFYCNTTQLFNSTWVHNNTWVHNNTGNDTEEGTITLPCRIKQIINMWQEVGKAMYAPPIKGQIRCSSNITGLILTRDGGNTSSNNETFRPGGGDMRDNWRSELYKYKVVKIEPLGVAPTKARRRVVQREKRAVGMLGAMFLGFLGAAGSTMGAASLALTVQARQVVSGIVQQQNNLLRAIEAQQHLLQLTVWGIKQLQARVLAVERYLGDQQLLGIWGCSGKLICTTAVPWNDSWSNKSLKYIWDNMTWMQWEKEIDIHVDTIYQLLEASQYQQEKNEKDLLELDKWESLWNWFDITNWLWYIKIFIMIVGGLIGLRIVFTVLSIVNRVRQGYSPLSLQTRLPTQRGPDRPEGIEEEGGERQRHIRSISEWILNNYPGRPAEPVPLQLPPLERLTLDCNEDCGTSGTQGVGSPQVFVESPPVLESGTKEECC

Row | Structure (SMILES) | IC50
1 | N#Cc1c(O)nc(SCc2cccc(Cl)c2)nc1-c1ccccc1 | 24.8 µM (active)
2 | O=C(O)c1cc(N/N=C/c2ccc(-c3ccccc3)cc2)ccc1Cl | 16.1 µM (active)
